These are literature values, as cited in patent US20190185438A1 (Tonix Pharmaceuticals Holding Corp., priority 2016, published 2019).

Series [1] relates to patients with fibromyalgia.
For series [2], the system named is patients with fibromyalgia. The note with it: 8 weeks.
Where [3] appears, read: 4 mg/day, week 14, 10-point scale, p <0.001.

Like-named read-outs stand apart in the source and are kept apart here. Marks after values point to notes of the source that are not given here.

On to `CCOc1ccccc1O[C@@H](c1ccccc1)[C@@H]1CNCCO1` [Esreboxetine, (2S)-2-[(S)-(2-ethoxyphenoxy)-phenylmethyl]morpholine], for which, in series [1] (4 mg/day and 8 mg/day, 14 weeks, P=0.001), the “GFI score compared to placebo” value is listed as “significant improvement”. In series [1] (setting [3]), the “GFI score, treatment difference” value was −0.64* (10-point scale). In series [1] (setting [3]), the “Pain score, treatment difference” value is listed as −0.74* (10-point scale). Moreover, the “FIQ score, treatment difference” value in series [1] (4 mg/day, week 14, 100-point scale, p <0.001) is −7.12* (100-point. Besides, in series [1] (4 mg/day, week 14, p 0.002), the “PGIC, much improved or very much improved” value is reported as 41.7%**. Moreover, the Tolerability entry in series [1] (14 weeks) is on record as “generally well tolerated”; in series [2], “generally well-tolerated”. Further, the “PGIC score compared to placebo” value in series [1] (all doses (4, 8, 10 mg/day), 14 weeks, P≤0.007) is given as “significant improvement”. In series [1] (all doses (4, 8, 10 mg/day), 14 weeks, P≤0.023), the “FIQ score compared to placebo” value is “significant improvement”. The “Pain score compared to placebo” value in series [1] (all doses (4, 8, 10 mg/day), 14 weeks, P≤0.025) is recorded as “significant improvement”. For the same compound, the “Pain scores compared to placebo” value in series [2] (2 mg/day raised to 8 mg/day or maximum tolerated dose) is “statistically significant reductions”. Also, the “Patients discontinued due to adverse events” value in series [2] (placebo 2.3%) is 8.2%.
